Counter-ions that a name gives are not always drawn.
Molecular target: T1, human galectin-3 (hGal-3) (Homo sapiens, UniProt P17931)
T1 construct: P.K. and P.B. prepared recombinant full-length hGal-3 and contributed to the ITC experiments; made in house
Assay: Isothermal titration calorimetry (ITC) of sugar analogs with recombinant hGal-3
Type: binding
Settings: 27 °C; for −ΔH: binding enthalpy, lectin monomer units, errors 1–4%; for −ΔG: calculated from ΔG = -RT ln(Ka), errors less than 2%; for −TΔS: calculated from ΔG = ΔH − TΔS; for −TΔS / Kd: errors 1–7%; for n Sites/ Monomer: number of binding sites per hGal-3 monomer, errors less than 4%; for Kd / Ka: pH 7.2, 20 mM PBS buffer; for Kd: recombinant hGal-3, Kd calculated from 1/Ka; for Ka: recombinant hGal-3, errors 1–7%; for Relative Potencies: relative to methyl lactoside 1 = 1.0
Description: The Kd value of PNP LacNAc (20) was similar to that of its propargyl Lac analog 11.
ITC experiments were performed using a VP-ITC instrument from GE. Injections of 4 µL of carbohydrate solutions were added from a computer-controlled micro syringe at an interval of 4 min into the sample solution of hGal-3 (cell volume = 1.43 mL) with stirring at 350 rpm. Control experiments were performed by injecting the carbohydrates into a cell containing only buffer. The concentration range of hGal-3 was 90–130 µΜ, and the concentrations of the carbohydrates were 15–25 mM based on the dry weight molecular weights of the latter molecules. The concentration of hGal-3 was based on its molecular mass. Titrations were done at 27 °C (pH 7.2) using 20 mM PBS buffer. The experimental data were fitted to a theoretical titration curve using software supplied by the vendor, with ΔH (binding enthalpy in kcal mol^−1) (lectin monomer units), Ka (association constant) and n (number of binding sites per monomer), as adjustable parameters. The Kd (dissociation constant) was calculated from 1/Ka. The quantity c = Ka Mt (0), where Mt (0) is the initial macromolecule concentration, is of importance in titration microcalorimetry. All experiments were performed with c values 1 < c < 500. The instrument was calibrated using the calibration kit containing ribonuclease A (RNase A) and cytidine 2′-monophosphate (2′-CMP) supplied by the manufacturer. Thermodynamic parameters were calculated from the Gibbs Free Energy equation, ΔG = ΔH − TΔS = -RT ln(Ka), where ΔG, ΔH, and ΔS are the changes in free energy, enthalpy, and entropy of binding, respectively. T is the absolute temperature and R = 1.98 cal mol^−11 K^−1.

T1 sequence (P17931 whole entry): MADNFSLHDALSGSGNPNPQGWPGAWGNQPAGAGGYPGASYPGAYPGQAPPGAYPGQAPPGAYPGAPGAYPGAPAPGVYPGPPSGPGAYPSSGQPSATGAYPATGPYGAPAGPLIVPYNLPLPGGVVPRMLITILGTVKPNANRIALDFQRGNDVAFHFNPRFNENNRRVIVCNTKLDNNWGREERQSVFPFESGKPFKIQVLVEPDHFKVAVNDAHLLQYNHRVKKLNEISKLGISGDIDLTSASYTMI

| SMILES | −ΔH [kcal/mol] | −ΔG [kcal/mol] | −TΔS [kcal/mol] | n Sites/ Monomer | Kd [µM] | Ka | Relative Potencies |
| --- | --- | --- | --- | --- | --- | --- | --- |
| CC(=O)N[C@H]1[C@H](Oc2ccc([N+](=O)[O-])cc2)O[C@H](CO)[C@@H](O[C@@H]2O[C@H](CO)[C@H](O)[C@H](OS(=O)(=O)O)[C@H]2O)[C@@H]1O [Compound 23, 4-Nitrophenyl (3-O-Sulfo-β-D-Galactopyranosyl)-(1→4)-2-Acetamido-2-Deoxy-β-D-Glucopyranoside Sodium Salt] | 3.3 | 6.3 | -3.0 | 0.96 | 22.2 | 4.5 10^4 M^−1 | 4.1 |
| CO[C@@H]1O[C@H](CO)[C@@H](O[C@@H]2O[C@H](CO)[C@H](O)[C@H](O)[C@H]2O)[C@H](O)[C@H]1O [Compound 1, methyl 4-O-β-D-galactopyranosyl-β-D-glucopyranoside, reference compound] | 3.9 | 5.5 | -1.6 | 1.08 | 91 | 1.1 10^4 M^−1 | 1.0 |
| CC(=O)N[C@H]1[C@H](Oc2ccc([N+](=O)[O-])cc2)O[C@H](CO)[C@@H](O[C@@H]2O[C@H](CO)[C@H](O)[C@H](O)[C@H]2O)[C@@H]1O [Compound 20, 4-Nitrophenyl (β-D-Galactopyranosyl)-(1→4)-2-Acetamido-2-Deoxy-β-D-Glucopyranoside] | 7.3 | 6.1 | 1.2 | 1.05 | 33.3 | 3.0 10^4 M^−1 | 2.7 |
| O=[N+]([O-])c1ccc(O[C@@H]2O[C@H](CO)[C@@H](O[C@@H]3O[C@H](CO)[C@H](O)[C@H](O)[C@H]3O)[C@H](O)[C@H]2O)cc1 [Compound 6, 4-Nitrophenyl (β-D-Galactopyranosyl)-(1→4)-β-D-Glucopyranoside] | 3.7 | 5.9 | -2.2 | 1.10 | 50 |  | 1.8 |
| O=[N+]([O-])c1ccc(O[C@@H]2O[C@H](CO)[C@@H](O[C@@H]3O[C@H](CO)[C@H](O)[C@H](OS(=O)(=O)O)[C@H]3O)[C@H](O)[C@H]2O)cc1 [Compound 12, 4-Nitrophenyl (3-O-Sulfo-β-D-Galactopyranosyl)-(1→4)-β-D-Glucopyranoside Sodium Salt] | 6.0 | 6.4 | -0.4 | 0.97 | 20.4 | 4.9 10^4 M^−1 | 4.5 |

The next lines start with the values.

| −ΔH [kcal/mol] | −ΔG [kcal/mol] | −TΔS [kcal/mol] | n Sites/ Monomer | Kd [µM] | Ka | Relative Potencies | SMILES |
| --- | --- | --- | --- | --- | --- | --- | --- |
| 3.8 | 6.1 | -2.3 | 1.08 | 37 | 2.7 10^4 M^−1 | 2.5 | C#CCO[C@@H]1O[C@H](CO)[C@@H](O[C@@H]2O[C@H](CO)[C@H](O)[C@H](OS(=O)(=O)O)[C@H]2O)[C@H](O)[C@H]1O [Compound 11, Propargyl (3-O-Sulfo-β-D-Galactopyranosyl)-(1→4)-β-D-Glucopyranoside Sodium Salt] |
| 4.2 | 6.0 | -1.8 | 1.10 | 38 | 2.6 10^4 M^−1 | 2.4 | C#CCO[C@@H]1O[C@H](CO)[C@@H](O[C@@H]2O[C@H](CO)[C@H](O)[C@H](O)[C@H]2O)[C@H](O)[C@H]1NC(C)=O [Compound 27, Propargyl (β-D-Galactopyranosyl)-(1→4)-2-Acetamido-2-Deoxy-β-D-Glucopyranoside] |
| 5.9 | 5.7 | 0.2 | 1.04 | 62.5 | 1.6 10^4 M^−1 | 1.5 | C#CCOC1OC(CO)C(OC2OC(CO)C(O)C(OC3(C(=O)O)CC(O)C(NC(C)=O)C(C(O)C(O)CO)O3)C2O)C(O)C1NC(C)=O (stereo not drawn) [Compound 33] |
| 5.7 | 5.9 | -0.2 | 0.98 | 47.6 | 2.1 10^4 M^−1 | 1.9 | C#CCO[C@@H]1O[C@H](CO)[C@@H](O[C@@H]2O[C@H](CO)[C@H](O)[C@H](O)[C@H]2O)[C@H](O)[C@H]1O [Compound 4, Propargyl (β-D-Galactopyranosyl)-(1→4)-β-D-Glucopyranoside] |
| 4.3 | 5.8 |  | 1.10 | 52.6 | 1.9 10^4 M^−1 | 1.7 | C#CCO[C@@H]1O[C@H](CO)[C@@H](O[C@@H]2O[C@H](CO)[C@H](O)[C@H](OCC(=O)O)[C@H]2O)[C@H](O)[C@H]1NC(C)=O [Compound 32, Propargyl (3-O-Carboxymethyl-β-D-Galactopyranosyl)-(1→4)-2-Acetamido-2-Deoxy-β-D-Glucopyranoside Sodium Salt] |
| 5.2 | 6.6 | -1.4 | 1.07 | 14.7 | 6.8 10^4 M^−1 | 6.2 | C#CCO[C@@H]1O[C@H](CO)[C@@H](O[C@@H]2O[C@H](CO)[C@H](O)[C@H](OS(=O)(=O)O)[C@H]2O)[C@H](O)[C@H]1NC(C)=O [Compound 30, Propargyl (3-O-Sulfo-β-D-Galactopyranosyl)-(1→4)-2-Acetamido-2-Deoxy-β-D-Glucopyranoside Sodium Salt] |
